Laboratory results taken from ChEMBL document CHEMBL1201862, “PubChem BioAssay data set” (2004).
Activity calls are given as the source filed them.

Assays:
[1] = molecular target: Dual specificity protein phosphatase 3 (Homo sapiens, UniProt P51452); assay: VHR phosphatase inhibition, dose response, selectivity assay for STEP inhibitor project, biochemical (AID 602374); assay type: functional; details: read-out: IC50_Mean
[2] = molecular target: Small ubiquitin-related modifier 1 (Homo sapiens, UniProt P63165); assay: SUMO1 protein interaction blockers, potency – biochemical, fluorescence polarization, uHTS hits, dose response (AID 624382); assay type: functional; details: read-out: IC50_Mean
Small ubiquitin-related modifier 1, sequence (P63165 whole entry): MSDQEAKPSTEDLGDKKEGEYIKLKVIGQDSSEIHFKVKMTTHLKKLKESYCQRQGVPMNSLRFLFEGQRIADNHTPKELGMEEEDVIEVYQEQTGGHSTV

Caspase-6 = molecular target: T1, Caspase-6 (Homo sapiens, UniProt P55212); assay: inhibition of CASP6 peptide cleavage – biochemical, VEID-R110 fluorescence, cherry-pick, dose response (AID 720632)
T1 sequence (P55212 whole entry): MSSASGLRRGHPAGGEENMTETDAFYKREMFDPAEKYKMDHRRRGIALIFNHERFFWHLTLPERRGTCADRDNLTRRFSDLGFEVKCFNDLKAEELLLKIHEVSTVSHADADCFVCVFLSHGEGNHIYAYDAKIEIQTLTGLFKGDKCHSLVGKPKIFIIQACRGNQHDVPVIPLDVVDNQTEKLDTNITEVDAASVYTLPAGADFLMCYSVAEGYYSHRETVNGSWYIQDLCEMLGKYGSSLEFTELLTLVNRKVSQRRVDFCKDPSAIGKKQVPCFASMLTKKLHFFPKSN

Caspase-7 = Caspase-7 (Homo sapiens, UniProt P55210); assay: caspase-7 enzyme inhibition, selectivity check – biochemical, DEVD-R110 fluorescence, cherry-pick, selectivity assay for caspase-6 inhibitor project, dose response (AID 743295); assay type: functional
Caspase-7, sequence (P55210 24-198 limits assumed): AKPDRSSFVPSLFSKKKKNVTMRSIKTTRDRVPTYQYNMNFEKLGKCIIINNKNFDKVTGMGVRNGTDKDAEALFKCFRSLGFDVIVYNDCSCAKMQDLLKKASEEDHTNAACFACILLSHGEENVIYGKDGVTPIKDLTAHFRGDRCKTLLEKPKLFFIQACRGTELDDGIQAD
Caspase-7, sequence (P55210 207-303 limits assumed): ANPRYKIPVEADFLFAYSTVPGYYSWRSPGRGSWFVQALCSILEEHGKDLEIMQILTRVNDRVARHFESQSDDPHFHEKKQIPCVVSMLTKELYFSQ

Caspase-8 = Caspase-8 (Homo sapiens, UniProt Q14790); assay: inhibitors of purified CASP8 protease – biochemical, Z-IETD-R110 fluorescence, cherry-picked samples, selectivity assay for caspase-6 inhibitor project, dose response (AID 743294)
Caspase-8, sequence (Q14790 217-374 limits assumed): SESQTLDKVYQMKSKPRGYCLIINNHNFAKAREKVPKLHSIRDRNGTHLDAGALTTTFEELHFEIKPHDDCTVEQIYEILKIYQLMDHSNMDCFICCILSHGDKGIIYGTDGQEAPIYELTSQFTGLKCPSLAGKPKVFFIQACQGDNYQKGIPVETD
Caspase-8, sequence (Q14790 385-479 limits assumed): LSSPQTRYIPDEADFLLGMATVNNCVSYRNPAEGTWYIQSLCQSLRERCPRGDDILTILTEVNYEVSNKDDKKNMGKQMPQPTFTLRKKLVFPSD

Beta-galactosidase = Beta-galactosidase (Escherichia coli, UniProt Q8VNN2); assay type: functional
Beta-galactosidase, sequence (Q8VNN2 whole entry): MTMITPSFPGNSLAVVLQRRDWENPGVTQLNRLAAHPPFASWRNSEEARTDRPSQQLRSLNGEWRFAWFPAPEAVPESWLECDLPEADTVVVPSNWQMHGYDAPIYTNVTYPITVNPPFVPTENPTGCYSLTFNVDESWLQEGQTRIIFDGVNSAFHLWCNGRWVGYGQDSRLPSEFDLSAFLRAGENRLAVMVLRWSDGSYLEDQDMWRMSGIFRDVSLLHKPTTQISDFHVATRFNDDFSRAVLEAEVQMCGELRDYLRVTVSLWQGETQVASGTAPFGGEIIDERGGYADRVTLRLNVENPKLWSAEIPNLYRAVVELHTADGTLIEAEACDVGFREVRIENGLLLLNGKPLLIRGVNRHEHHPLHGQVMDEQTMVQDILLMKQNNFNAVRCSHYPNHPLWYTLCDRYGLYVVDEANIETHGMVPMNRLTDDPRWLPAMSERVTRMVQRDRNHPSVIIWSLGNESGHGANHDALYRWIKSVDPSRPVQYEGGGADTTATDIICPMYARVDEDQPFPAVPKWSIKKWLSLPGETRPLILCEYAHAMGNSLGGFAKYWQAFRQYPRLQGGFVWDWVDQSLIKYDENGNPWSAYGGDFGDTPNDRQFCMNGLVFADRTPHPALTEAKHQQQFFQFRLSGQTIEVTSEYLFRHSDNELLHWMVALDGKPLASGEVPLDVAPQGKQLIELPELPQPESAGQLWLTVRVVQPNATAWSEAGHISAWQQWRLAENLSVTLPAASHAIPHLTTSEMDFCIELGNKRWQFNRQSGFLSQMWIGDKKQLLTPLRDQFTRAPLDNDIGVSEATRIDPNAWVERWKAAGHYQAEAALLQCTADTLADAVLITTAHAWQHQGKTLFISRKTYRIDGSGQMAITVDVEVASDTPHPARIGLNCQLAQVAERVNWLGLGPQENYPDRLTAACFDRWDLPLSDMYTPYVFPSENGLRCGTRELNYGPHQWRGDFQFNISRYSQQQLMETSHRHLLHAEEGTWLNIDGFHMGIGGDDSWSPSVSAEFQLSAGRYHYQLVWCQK

[3] = molecular target: T2, Replicative DNA helicase DnaB (Mycobacterium tuberculosis, UniProt P9WMR3); assay: DnaB intein splicing inhibitors, dose response, biochemical, cell-free fluorescence (AID 449749); assay type: functional
T2 sequence (P9WMR3 whole entry): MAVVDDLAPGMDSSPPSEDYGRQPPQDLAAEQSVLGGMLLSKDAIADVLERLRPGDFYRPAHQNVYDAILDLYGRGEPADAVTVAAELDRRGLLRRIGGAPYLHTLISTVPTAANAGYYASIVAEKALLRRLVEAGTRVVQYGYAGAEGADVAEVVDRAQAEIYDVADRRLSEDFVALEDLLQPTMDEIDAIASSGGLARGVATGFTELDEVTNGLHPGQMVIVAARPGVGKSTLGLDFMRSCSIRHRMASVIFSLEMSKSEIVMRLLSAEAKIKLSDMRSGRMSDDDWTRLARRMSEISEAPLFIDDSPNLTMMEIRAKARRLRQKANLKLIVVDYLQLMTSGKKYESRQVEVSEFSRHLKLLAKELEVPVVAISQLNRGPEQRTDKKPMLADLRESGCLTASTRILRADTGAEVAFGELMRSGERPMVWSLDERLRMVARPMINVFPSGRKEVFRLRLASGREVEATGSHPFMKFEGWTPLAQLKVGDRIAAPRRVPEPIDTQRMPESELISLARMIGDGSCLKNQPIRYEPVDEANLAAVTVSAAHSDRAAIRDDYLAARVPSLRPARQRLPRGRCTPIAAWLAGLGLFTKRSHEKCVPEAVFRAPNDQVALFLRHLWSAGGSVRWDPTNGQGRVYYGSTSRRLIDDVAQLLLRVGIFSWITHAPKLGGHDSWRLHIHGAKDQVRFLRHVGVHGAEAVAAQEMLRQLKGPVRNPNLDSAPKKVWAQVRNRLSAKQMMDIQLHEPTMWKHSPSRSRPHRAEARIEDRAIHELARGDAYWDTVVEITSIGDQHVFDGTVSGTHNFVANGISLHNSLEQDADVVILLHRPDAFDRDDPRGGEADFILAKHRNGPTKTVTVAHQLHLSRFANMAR

Protein RecA = molecular target: T3, Protein RecA (Mycobacterium tuberculosis, UniProt P9WHJ3); assay: Fluorescence Cell-Free Homogeneous Dose Retest to Identify Inhibitors of RecA-Intein Splicing Activity. [Related pubchem assays (depositor defined):AID2097, AID2223, AID489010, AID492950]; assay type: functional
T3 sequence (P9WHJ3 whole entry): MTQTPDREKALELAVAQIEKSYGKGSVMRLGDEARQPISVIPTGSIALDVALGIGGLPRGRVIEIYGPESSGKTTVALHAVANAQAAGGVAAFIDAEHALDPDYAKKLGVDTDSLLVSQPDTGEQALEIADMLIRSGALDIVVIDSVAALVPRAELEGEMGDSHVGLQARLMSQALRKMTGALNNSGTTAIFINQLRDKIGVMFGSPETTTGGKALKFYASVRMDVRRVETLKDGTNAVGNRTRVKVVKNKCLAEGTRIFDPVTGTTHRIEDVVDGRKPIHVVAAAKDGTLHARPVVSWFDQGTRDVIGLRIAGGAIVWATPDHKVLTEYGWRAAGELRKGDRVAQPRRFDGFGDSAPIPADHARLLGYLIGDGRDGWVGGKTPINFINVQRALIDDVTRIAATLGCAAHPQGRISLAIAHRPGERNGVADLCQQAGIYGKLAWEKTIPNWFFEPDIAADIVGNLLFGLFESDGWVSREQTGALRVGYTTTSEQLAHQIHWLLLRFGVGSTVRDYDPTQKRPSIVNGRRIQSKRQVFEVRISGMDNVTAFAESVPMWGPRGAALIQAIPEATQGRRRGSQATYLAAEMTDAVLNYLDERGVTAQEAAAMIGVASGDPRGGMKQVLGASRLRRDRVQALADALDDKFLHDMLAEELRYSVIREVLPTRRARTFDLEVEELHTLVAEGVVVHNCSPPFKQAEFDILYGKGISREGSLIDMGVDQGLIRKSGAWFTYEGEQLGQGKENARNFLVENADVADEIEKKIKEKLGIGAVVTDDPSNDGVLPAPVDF

Dual specificity protein phosphatase 3, sequence (P51452 whole entry): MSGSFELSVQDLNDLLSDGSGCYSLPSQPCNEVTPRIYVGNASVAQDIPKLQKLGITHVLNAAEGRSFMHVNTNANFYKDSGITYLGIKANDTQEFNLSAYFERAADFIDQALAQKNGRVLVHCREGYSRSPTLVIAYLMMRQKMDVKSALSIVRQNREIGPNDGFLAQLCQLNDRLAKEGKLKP

With `O=S(=O)(O)c1cc(O)c2cc(Nc3ccccc3)ccc2c1` the IC50 [1] was 0.485 µM (active), the IC50 [2] was > 66.6 µM (inactive) and the AC50 (Caspase-6) was 0.403 µM (active). For the same compound, the AC50 (Caspase-7) was 30.2 µM (active) and the AC50 (Caspase-8) was > 70 µM (inactive).

In the case of `O=[N+]([O-])c1c(Nc2ccccc2O)cc(Cl)c2nonc12`, the EC50 (Beta-galactosidase) is reported as > 31.5 µM (inactive), the AC50 [3] is reported as 2.19 µM (active) and the EC50 (Protein RecA) is reported as 1.21 µM (active).
